Data on two compounds can be found in patent publication US9770448B1, “Compositions and methods for treatment of Bowen's disease and related diseases” (priority 2016, dated 2017).

Each structure is given as a SMILES string.

The subject of one experiment is Bowen's disease. The following applies: Example 10 patient history; cited from earlier work.
The subject of experiment [1] is HPV+ laryngeal keratinocytes. Briefly: In vitro chloroquine-induced killing of laryngeal keratinocytes (HPV+). It is filed as cell-based, human. As to conditions: two days incubation, visual inspection for survival. An excerpt:
(§1) In addition to the foregoing examples, in vitro experimental data have been obtained which indicate that the compositions and methods of the present disclosure can be used in the treatment of recurrent respiratory papillomatosis (RRPRRP) disease, which is also known as laryngeal papillomatosis. RRP is caused by human papillomavirus (HPV), typically HPV6 and HPV11, and involves formation of generally nonmalignant tumors on the larynx or vocal chords, and can spread to the trachea, bronchi and lungs. HPV^+ and HPV^− laryngeal keratinocytes obtained from a recurrent respiratory papillomatosis patient were expanded on Mitomycin C-treated J2 3T3 feeder cell layers in E media with 10 uM Y27632 (ROCK inhibitor). These cells were then plated without feeder layers in 2.5 uM Y27632 and grown until they reached 90% confluency. At this point, fresh E media without Y27632 was added to the cells with increasing concentrations of chloroquine. Chloroquine concentrations used were 0 ug/ml, 2.5 ug/ml, 25 ug/ml, 250 ug/ml, 2.5 mg/ml and 25 mg/ml. Chloroquine powder (Sigma) was resuspended at 25 mg/ml in E media and was brought to pH 7 with 1N NaOH. Working dilutions were made with full E media. Cells were incubated for two days in chloroquine and then visually inspected for survival, as noted by (a) the presence of cells in the wells and (b) morphology of the cells.

The test system of experiment [2] is HPV- laryngeal keratinocytes. Briefly: In vitro chloroquine-induced killing of laryngeal keratinocytes (HPV-). It is filed as cell-based, human. As to conditions: two days incubation, visual inspection for survival.
Excerpt: as §1

For the compound `O=C(O)C(Cl)(Cl)Cl` [TCA, trichloroacetic acid], the “Outcome of earlier over the counter drug as stated by patient” value with Bowen's disease is “made the Bowen's disease Lesion worse”.
Turning to `CCN(CC)CCCC(C)Nc1ccnc2cc(Cl)ccc12` (racemic) [chloroquine, (RS)—N′-(7-chloroquinolin-4-yl)-N,N-diethyl-pentane-1,4-diamine], in experiment [1], the “Chloroquine concentration that cells survived” value amounted to 25 µg/mL and the “Chloroquine concentrations at which cells were killed” value is at least 250 µg/mL. In experiment [2], the “Chloroquine concentration that cells survived” value is 25 µg/mL and the “Chloroquine concentrations at which cells were killed” value is at least 250 µg/mL.
